In PMC5267425, “Identification of small molecule modulators of HIV-1 Tat and Rev protein accumulation” (Retrovirology, 2017):
Where a SMILES comes first, the peptide text is derived from it. The star is where a group is joined. Cbz = O=C(OCc1ccccc1)*

How the values were obtained:
[1] = test system: HIV-1 Tat (p14, p16) and Gag; experiment: Rescue of Tat/Gag expression by proteasome inhibitor MG132; format: cell-based; conditions: MG132 10 μM for 8 h, with 791, 833 or 892
Protocol: To assess effect of compounds on HIV-1 Tat stability, the decay of HIV-1 Tat levels was compared between DMSO-treated and compound-treated protein lysates in the presence of cycloheximide. In the first set of experiments, HIV-1 gene expression was induced with doxycylin (dox) for 24 h then 10 μg/mL cycloheximide was added to block new protein synthesis in combination with either DMSO or the compounds. Cells were harvested every 2 h and Tat protein levels measured by western blot. Quantification of the relative intensity of the detected bands was performed using ImageLab software (BioRad) and normalized to corresponding bands of the loading control (GAPDH) from at least three independent experiments. To determine whether the compounds’ effect on HIV-1 gene expression could be reversed by inhibition of the proteasome, compound treatment assay was performed as previously described with the addition of 10 μM MG132 (Sigma-Aldrich) to compound-treated cells 8 h prior to harvesting. Equal amounts of protein were run on 13 or 14% gels by SDS-PAGE, blotted and probed with antibodies for Tat and GAPDH. Quantification of the relative intensity of the detected bands was performed using ImageLab software (BioRad) and normalized to corresponding bands of the loading control (GAPDH) from at least three independent experiments.

p53 = test system: p53; set-up: method as in PMID 27283735; conditions: cited from earlier work
[2] = test system: total protein synthesis in HeLa HIVrtTA∆Mls cells; experiment: SUnSET total protein synthesis; format: cell-based; conditions: negative control
Protocol: The effect of the compounds on nascent protein synthesis was measured by surface sensing of translation (SUnSET) as described by Schmidt et al.. Cells were incubated with puromycin, an aminoacyl tRNA analog, to allow puromycin incorporation into newly translated peptides and prevention of further ribosomal elongation by chain termination. To assess the effect of the compounds on protein translation, cells were prepared and treated as described above, but were incubated with 10 μg/mL of puromycin for a period of 30 min prior to harvesting cell lysates for protein analysis. Protein concentration of cell lysates was quantified by Bradford assay and equal amounts of protein (30–35 μg) was run on either 10% or 4–15% (gradient) gels. Following transfer to PVDF (BioRad), blots were probed with mouse monoclonal antibody to puromycin (anti-12D10, EMD Millipore). Blots were developed using ECL Plus (Perkin-Elmer) or Clarity (BioRad) and imaged using the ChemiDoc MP Imager (BioRad). To quantify the levels of protein synthesis, the volume intensity in each lane of compound-treated sample was calculated relative to the DMSO-treated sample and normalized to GAPDH loading control using ImageLab software (BioRad) from at least four independent experiments.

HIV-1 US, SS and MS RNAs = experiment: qRTPCR of HIV-1 RNAs in 293T cells transfected with pHxbc2 R-/RI-; format: cell-based; conditions: 20 nM, 24 h, 293T (Figure S6)
Protocol: Samples were processed and assayed as previously described using the BioRad Aurum Total RNA Lysis Kit (BioRad) as per manufacturer’s instructions with the addition of Turbo DNase (Ambion). Purified RNA (0.5–2 μg) was reverse transcribed using M-MLV (Invitrogen) to generate complementary DNA (cDNA). HIV-1 and actin mRNA levels in DMSO- and compound-treated samples were quantified by qPCR using the Mastercycler ep realplex (Eppendorf) as described by Wong et al.. Gene quantification was evaluated using the absolute quantification method, normalized to β-actin expression, and expressed relative to DMSO-treatment.
Additional file 1: Figure S1. […] Cell viability was measured by an XTT assay. […] Cells were analyzed after 24 h incubation with the compounds at the indicated concentrations ranging between 0–47 μM (791), 0–5 μM (833), or 0–62.5 μM (892). Results are expressed as the percentage (%) of viable cells relative to DMSO treatment ±SEM of two independent experiments performed in triplicate. […] Images are cropped to show a representative field of view. b The dose range of the compounds which inhibit HIV-1 GagGFP expression in HeLa rtTA HIVGagGFP C7 cells was measured by mean fluorescence intensity and expressed relative to fluorescence intensity in DMSO-treated samples (N ≥ 3, *p ≤ 0.05, **p ≤ 0.01, and ***p ≤ 0.001). […]

CC(C)C[C@@H](C=O)NC(=O)[C@H](CC(C)C)NC(=O)[C@H](CC(C)C)NC(=O)OCc1ccccc1 [MG132, reference compound] (Cbz-Leu-Leu-Leu-aldehyde)
production of HIV-1 Gag on addition of MG132 [1]: did not restore

COc1cc(/C=C/C(=O)CC(=O)/C=C/c2ccc(O)c(OC)c2)ccc1O [curcumin]
Tat and p53 levels (p53): reduces

C[C@@H]1C[C@@H]([C@H](O)CC2CC(=O)NC(=O)C2)C(=O)[C@@H](C)C1 [cycloheximide, reference compound]
puromycin signal (newly synthesized polypeptides) [2]: little

CCC(=C/[C@H](C)C/C=C/C(C)=C/[C@@H](C)C(=O)[C@@H](C)[C@H](O)[C@@H](C)C/C(C)=C/C(=O)O)/C=C/[C@@H]1OC(=O)C=C[C@@H]1C [leptomycin B]
HIV-1 MS RNA abundance (HIV-1 US, SS and MS RNAs): little or no change
HIV-1 US and SS RNA levels (HIV-1 US, SS and MS RNAs): dramatic reduction
